Test results taken from patent US7951406B2, “Therapeutic compounds isolated from Calomeria amaranthoides” (Caroline Van Haaften, priority 2004, dated 2011).

Legend:
human skin fibroblasts = assay: Cell viability by photomicrography, comparison with Cisplatinum and Docetaxol, fibroblasts; details: 10 μg and 100 μg, compared with 1 μg; 48 hours
[1] = system: ovarian cancer cell line JC; details: 48 hours

Compound	cell viability in fibroblasts (human skin fibroblasts)	cytotoxicity in JC cells, treatments compared ([1]; 10 μg dosage level)	resistance of JC cells [1]
N.N.[Cl][Pt][Cl] [Cisplatinum]	greater reduction in cell viability		
CC(=O)O[C@@]12CO[C@@H]1C[C@H](O)[C@@]1(C)C(=O)[C@H](O)C3=C(C)[C@@H](OC(=O)[C@H](O)[C@@H](NC(=O)OC(C)(C)C)c4ccccc4)C[C@@](O)([C@@H](OC(=O)c4ccccc4)[C@H]21)C3(C)C [Docetaxol]	greater reduction in cell viability	less cytotoxic than either the Calomeria extract or Cisplatinum	more resistant
